This note sets out measurements from patent US20230123334A1, “AMINO LIPID COMPOUND, PREPARATION METHOD THEREFOR, AND APPLICATION THEREOF” (SHENZHEN SHENXIN BIOTECHNOLOGY CO., LTD., priority 2020, published 2023).

The test system of assay [1] is HEK293 cells. Nature of the assay: Preliminary screening as DNA vectors, GFP transfection of HEK293 cells. The assay is classed as cell-based. Particulars: HEK293 cells; lipid/DOPE liposome with 75 ng plasmid DNA (psin-EGFP-IRES-Puro); number of cells expressing GFP divided by total number of nuclei (Hoechst). The method, boiled down:
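HEK293 cells in DMEM/10% FBS transfected with 75 ng EGFP plasmid per well complexed with amino lipid/DOPE liposomes in pH 5.6 sodium acetate. Hoechst nuclear stain added 20-24 h post-transfection, then cells cultured another 20-24 h. Confocal imaging gives GFP-positive cells as % of total nuclei.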

The subject of assay [2] is HEK293 cells. Nature of the assay: Preliminary screening as mRNA vectors, EGFP mRNA transfection of HEK293 cells. Format: cell-based. Particulars: HEK293 cells, 96-well plates, EGFP mRNA 50 ng per well; percentage of GFP fluorescent cells relative to total number of cells (Hoechst). A digest of the protocol:
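HEK293 cells in DMEM plus 10% FBS transfected in 96-well format with 50 ng EGFP mRNA per well; Lipofectamine2000 served as positive control. Read-out is the percentage of GFP-fluorescent cells among total cells, counted by Hoechst nuclear stain.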

As for `CCCCCCCCCCCCCCCCNc1nc(NCCCCCCCC)nc(NCCN2CCCCC2)n1` [Compound N8N16D4], in assay [1], the “Absolute DNA transfection efficiency in HEK293 cells” value (“Absolute DNA transfection efficiency” for short) was 5.3%. Also, the “Absolute mRNA transfection efficiency in HEK293 cells” value (“Absolute mRNA transfection efficiency” for short) in assay [2] was 2.3%.

As to `CCCCCCCCCCCCCCCCNc1nc(NCCCCCCCC)nc(NCCN2CCN(C)CC2)n1` [Compound N8N16D5], the “Absolute DNA transfection efficiency” value in assay [1] is listed as 0.2%. The “Absolute mRNA transfection efficiency” value in assay [2] was 0.3%.

`CCCCCCCCCCCCCCCCNc1nc(NCCCCCCCC)nc(NCCCN(C)C)n1` [Compound N8N16D6]: the “Absolute DNA transfection efficiency” value in assay [1] is recorded as 2.4%. Moreover, in assay [2], the “Absolute mRNA transfection efficiency” value is listed as 1.5%.

On to `CCCCCCCCCCCCCCCCNc1nc(NCCCCCCCC)nc(NCCN(CC)CC)n1` [Compound N8N16D7], for which, in assay [1], the “Absolute DNA transfection efficiency” value was 3.1%. The “Absolute mRNA transfection efficiency” value in assay [2] amounted to 0.3%.

With `CCCCCCCCCCCCCCCCNc1nc(NCCCCCCCC)nc(NCCCN2CCOCC2)n1` [Compound N8N16D8], in assay [1], the “Absolute DNA transfection efficiency” value amounted to 2.3%. Further, the “Absolute mRNA transfection efficiency” value in assay [2] was determined as 0.2%.

For `CCCCCCCCCCCCCCCCNc1nc(NCCCCCCCC)nc(NCCCN2CCN(C)CC2)n1` [Compound N8N16D9], the “Absolute DNA transfection efficiency” value in assay [1] came out at 1.0%. In assay [2], the “Absolute mRNA transfection efficiency” value was determined as 0.5%.

For `CCCCCCCCCCCCCCCCNc1nc(NCCCCCCCC)nc(NCC2CCN(C)CC2)n1` [Compound N8N16D10], the “Absolute DNA transfection efficiency” value in assay [1] is 3.4%. Besides, the “Absolute mRNA transfection efficiency” value in assay [2] came to 1.5%.

For the compound `CCCCCCCCCCCCCCCCCCNc1nc(NCCCCCCCC)nc(NCCN(C)C)n1` [Compound N8N18D1], the “Absolute DNA transfection efficiency” value in assay [1] is recorded as 1.8%. For the same compound, the “Absolute mRNA transfection efficiency” value in assay [2] is given as 6.4%.

For the compound `CCCCCCCCCCCCCCCCCCNc1nc(NCCCCCCCC)nc(NCCN2CCOCC2)n1` [Compound N8N18D2], in assay [1], the “Absolute DNA transfection efficiency” value was determined as 1.7%. Besides, in assay [2], the “Absolute mRNA transfection efficiency” value turned out to be 7.0%.

For the compound `CCCCCCCCCCCCCCCCCCNc1nc(NCCCCCCCC)nc(NCCN2CCCC2)n1` [Compound N8N18D3], the “Absolute DNA transfection efficiency” value in assay [1] came out at 9.8%. Further, the “Absolute mRNA transfection efficiency” value in assay [2] came to 39.9%.

Take `CCCCCCCCCCCCCCCCCCNc1nc(NCCCCCCCC)nc(NCCN2CCCCC2)n1` [Compound N8N18D4]: the “Absolute DNA transfection efficiency” value in assay [1] stood at 8.2%. Further, the “Absolute mRNA transfection efficiency” value in assay [2] is 29.2%.

Take `CCCCCCCCCCCCCCCCCCNc1nc(NCCCCCCCC)nc(NCCN2CCN(C)CC2)n1` [Compound N8N18D5]: the “Absolute DNA transfection efficiency” value in assay [1] stood at 1.9%. The “Absolute mRNA transfection efficiency” value in assay [2] was 0.9%.

Consider `CCCCCCCCCCCCCCCCCCNc1nc(NCCCCCCCC)nc(NCCCN(C)C)n1` [Compound N8N18D6], for which the “Absolute DNA transfection efficiency” value in assay [1] is reported as 2.2%. In assay [2], the “Absolute mRNA transfection efficiency” value is 4.1%.

Consider `CCCCCCCCCCCCCCCCCCNc1nc(NCCCCCCCC)nc(NCCN(CC)CC)n1` [Compound N8N18D7], for which, in assay [1], the “Absolute DNA transfection efficiency” value was determined as 2.7%. Moreover, the “Absolute mRNA transfection efficiency” value in assay [2] came out at 9.3%.

For the compound `CCCCCCCCCCCCCCCCCCNc1nc(NCCCCCCCC)nc(NCCCN2CCOCC2)n1` [Compound N8N18D8], the “Absolute DNA transfection efficiency” value in assay [1] is 1.3%. Further, in assay [2], the “Absolute mRNA transfection efficiency” value is given as 2.8%.

For the compound `CCCCCCCCCCCCCCCCCCNc1nc(NCCCCCCCC)nc(NCCCN2CCN(C)CC2)n1` [Compound N8N18D9], the “Absolute DNA transfection efficiency” value in assay [1] was found to be 1.2%. The “Absolute mRNA transfection efficiency” value in assay [2] came out at 0.0%.

As to `CCCCCCCCCCCCCCCCCCNc1nc(NCCCCCCCC)nc(NCC2CCN(C)CC2)n1` [Compound N8N18D10], the “Absolute DNA transfection efficiency” value in assay [1] is 1.4%. For the same compound, the “Absolute mRNA transfection efficiency” value in assay [2] is reported as 5.0%.

As to `CCCCCCCCCNc1nc(NCCCCCCCCC)nc(NCCN(C)C)n1` [Compound N9N9D1], in assay [1], the “Absolute DNA transfection efficiency” value came to 0.2%. Further, the “Absolute mRNA transfection efficiency” value in assay [2] is on record as 0.5%.

With `CCCCCCCCCNc1nc(NCCCCCCCCC)nc(NCCN2CCOCC2)n1` [Compound N9N9D2], in assay [1], the “Absolute DNA transfection efficiency” value was found to be 0.0%. In addition, the “Absolute mRNA transfection efficiency” value in assay [2] stood at 0.1%.

In the case of `CCCCCCCCCNc1nc(NCCCCCCCCC)nc(NCCN2CCCC2)n1` [Compound N9N9D3], the “Absolute DNA transfection efficiency” value in assay [1] turned out to be 0.3%. For the same compound, the “Absolute mRNA transfection efficiency” value in assay [2] is given as 0.2%.

With `CCCCCCCCCNc1nc(NCCCCCCCCC)nc(NCCN2CCCCC2)n1` [Compound N9N9D4], the “Absolute DNA transfection efficiency” value in assay [1] worked out at 0.0%. The “Absolute mRNA transfection efficiency” value in assay [2] turned out to be 0.6%.

For the compound `CCCCCCCCCNc1nc(NCCCCCCCCC)nc(NCCN2CCN(C)CC2)n1` [Compound N9N9D5], in assay [1], the “Absolute DNA transfection efficiency” value is recorded as 0.0%. The “Absolute mRNA transfection efficiency” value in assay [2] stood at 0.1%.

`CCCCCCCCCNc1nc(NCCCCCCCCC)nc(NCCCN(C)C)n1` [Compound N9N9D6]: the “Absolute DNA transfection efficiency” value in assay [1] is on record as 0.2%. The “Absolute mRNA transfection efficiency” value in assay [2] amounted to 0.4%.

On to `CCCCCCCCCNc1nc(NCCCCCCCCC)nc(NCCN(CC)CC)n1` [Compound N9N9D7], for which the “Absolute DNA transfection efficiency” value in assay [1] turned out to be 0.0%. For the same compound, the “Absolute mRNA transfection efficiency” value in assay [2] is 0.3%.

With `CCCCCCCCCNc1nc(NCCCCCCCCC)nc(NCCCN2CCOCC2)n1` [Compound N9N9D8], the “Absolute DNA transfection efficiency” value in assay [1] stood at 0.0%. Further, the “Absolute mRNA transfection efficiency” value in assay [2] is recorded as 0.6%.

Regarding `CCCCCCCCCNc1nc(NCCCCCCCCC)nc(NCCCN2CCN(C)CC2)n1` [Compound N9N9D9], the “Absolute DNA transfection efficiency” value in assay [1] was 0.0%. In assay [2], the “Absolute mRNA transfection efficiency” value was 0.2%.

Take `CCCCCCCCCNc1nc(NCCCCCCCCC)nc(NCC2CCN(C)CC2)n1` [Compound N9N9D10]: in assay [1], the “Absolute DNA transfection efficiency” value is 0.0%. The “Absolute mRNA transfection efficiency” value in assay [2] is given as 0.8%.

For the compound `CCCCCCCCCCCNc1nc(NCCCCCCCCC)nc(NCCN(C)C)n1` [Compound N9N11D1], the “Absolute DNA transfection efficiency” value in assay [1] is listed as 0.0%. The “Absolute mRNA transfection efficiency” value in assay [2] amounted to 2.2%.

For the compound `CCCCCCCCCCCNc1nc(NCCCCCCCCC)nc(NCCN2CCOCC2)n1` [Compound N9N11D2], in assay [1], the “Absolute DNA transfection efficiency” value worked out at 0.0%. Further, the “Absolute mRNA transfection efficiency” value in assay [2] stood at 0.3%.

`CCCCCCCCCCCNc1nc(NCCCCCCCCC)nc(NCCN2CCCC2)n1` [Compound N9N11D3]: the “Absolute DNA transfection efficiency” value in assay [1] was 0.0%. For the same compound, the “Absolute mRNA transfection efficiency” value in assay [2] was 1.8%.

Regarding `CCCCCCCCCCCNc1nc(NCCCCCCCCC)nc(NCCN2CCCCC2)n1` [Compound N9N11D4], the “Absolute DNA transfection efficiency” value in assay [1] is on record as 0.0%. The “Absolute mRNA transfection efficiency” value in assay [2] came to 0.0%.

Take `CCCCCCCCCCCNc1nc(NCCCCCCCCC)nc(NCCN2CCN(C)CC2)n1` [Compound N9N11D5]: the “Absolute DNA transfection efficiency” value in assay [1] worked out at 0.0%. In addition, in assay [2], the “Absolute mRNA transfection efficiency” value came to 1.1%.

As to `CCCCCCCCCCCNc1nc(NCCCCCCCCC)nc(NCCCN(C)C)n1` [Compound N9N11D6], the “Absolute DNA transfection efficiency” value in assay [1] is given as 0.0%. Also, the “Absolute mRNA transfection efficiency” value in assay [2] was found to be 0.5%.

Take `CCCCCCCCCCCNc1nc(NCCCCCCCCC)nc(NCCN(CC)CC)n1` [Compound N9N11D7]: in assay [1], the “Absolute DNA transfection efficiency” value amounted to 0.0%. In addition, the “Absolute mRNA transfection efficiency” value in assay [2] was found to be 0.8%.

Turning to `CCCCCCCCCCCNc1nc(NCCCCCCCCC)nc(NCCCN2CCOCC2)n1` [Compound N9N11D8], the “Absolute DNA transfection efficiency” value in assay [1] was found to be 0.0%. Moreover, the “Absolute mRNA transfection efficiency” value in assay [2] worked out at 0.4%.

In the case of `CCCCCCCCCCCNc1nc(NCCCCCCCCC)nc(NCCCN2CCN(C)CC2)n1` [Compound N9N11D9], the “Absolute DNA transfection efficiency” value in assay [1] amounted to 0.0%. For the same compound, the “Absolute mRNA transfection efficiency” value in assay [2] came out at 0.7%.

As to `CCCCCCCCCCCNc1nc(NCCCCCCCCC)nc(NCC2CCN(C)CC2)n1` [Compound N9N11D10], the “Absolute DNA transfection efficiency” value in assay [1] is 0.0%. Moreover, in assay [2], the “Absolute mRNA transfection efficiency” value worked out at 0.0%.

Take `CCCCCCCCCCCCNc1nc(NCCCCCCCCC)nc(NCCN(C)C)n1` [Compound N9N12D1]: the “Absolute DNA transfection efficiency” value in assay [1] is reported as 0.0%. Besides, in assay [2], the “Absolute mRNA transfection efficiency” value is given as 0.5%.

For the compound `CCCCCCCCCCCCNc1nc(NCCCCCCCCC)nc(NCCN2CCOCC2)n1` [Compound N9N12D2], the “Absolute DNA transfection efficiency” value in assay [1] came to 0.0%. Besides, the “Absolute mRNA transfection efficiency” value in assay [2] was determined as 0.8%.

On to `CCCCCCCCCCCCNc1nc(NCCCCCCCCC)nc(NCCN2CCCC2)n1` [Compound N9N12D3], for which, in assay [1], the “Absolute DNA transfection efficiency” value was found to be 0.6%. The “Absolute mRNA transfection efficiency” value in assay [2] stood at 4.3%.

`CCCCCCCCCCCCNc1nc(NCCCCCCCCC)nc(NCCN2CCCCC2)n1` [Compound N9N12D4]: the “Absolute DNA transfection efficiency” value in assay [1] was 0.0%. Further, the “Absolute mRNA transfection efficiency” value in assay [2] came to 2.4%.

For the compound `CCCCCCCCCCCCNc1nc(NCCCCCCCCC)nc(NCCN2CCN(C)CC2)n1` [Compound N9N12D5], the “Absolute DNA transfection efficiency” value in assay [1] is on record as 0.0%. Moreover, the “Absolute mRNA transfection efficiency” value in assay [2] came out at 3.8%.

As for `CCCCCCCCCCCCNc1nc(NCCCCCCCCC)nc(NCCCN(C)C)n1` [Compound N9N12D6], in assay [1], the “Absolute DNA transfection efficiency” value was found to be 0.0%. Further, the “Absolute mRNA transfection efficiency” value in assay [2] is 0.2%.
